Like-named read-outs stand apart in the source and are kept apart here.
Target: T1, F508delCFTR (Homo sapiens, UniProt P13569, DEL508-508)
T1 construct: expressed in transfected cells; host or cells: CFBE41o- human lung-derived epithelial cells (CFBE4lo-F508delCFTR-HRP), doxycycline-inducible
Assay: Cell Surface Expression-Horse Radish Peroxidase (CSE-HRP) Assay;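 on Maximum % activity (with co-corrector): co-corrector and positive control are both the same reference corrector at 2 µM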;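 on Maximum % activity (without co-corrector): percent of the 2 µM on-plate positive control corrector response above DMSO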
Format: cell-based
Settings: for Emax / Maximum % activity (with co-corrector): maximum at any tested concentration, normalized to on-plate positive control; for Emax: read-out: Maximum % activity (without co-corrector)

[1] = test compound without co-corrector
[2] = test compound without co-corrector, read-out: EC50 (without co-corrector)
[3] = with co-corrector (2 μM of 3-[(2R,4R)-4-({[1-(2,2-difluoro-1,3-benzodioxol-5-yl)cyclopropyl]carbonyl}amino)-7-methoxy-3,4-dihydro-2H-chromen-2-yl]benzoic acid)
[4] = with co-corrector (2 μM of 3-[(2R,4R)-4-({[1-(2,2-difluoro-1,3-benzodioxol-5-yl)cyclopropyl]carbonyl}amino)-7-methoxy-3,4-dihydro-2H-chromen-2-yl]benzoic acid), read-out: EC50 (with co-corrector)
[5] = CSE-HRP, test compound without co-corrector, read-out: EC50 (without co-corrector)
[6] = CSE-HRP, with co-corrector (2 μM of 3-[(2R,4R)-4-({[1-(2,2-difluoro-1,3-benzodioxol-5-yl)cyclopropyl]carbonyl}amino)-7-methoxy-3,4-dihydro-2H-chromen-2-yl]benzoic acid), read-out: EC50 (with co-corrector)
[7] = CSE-HRP, with co-corrector (2 μM)

T1 sequence (P13569 with tags, fused parts or gaps DEL508-508): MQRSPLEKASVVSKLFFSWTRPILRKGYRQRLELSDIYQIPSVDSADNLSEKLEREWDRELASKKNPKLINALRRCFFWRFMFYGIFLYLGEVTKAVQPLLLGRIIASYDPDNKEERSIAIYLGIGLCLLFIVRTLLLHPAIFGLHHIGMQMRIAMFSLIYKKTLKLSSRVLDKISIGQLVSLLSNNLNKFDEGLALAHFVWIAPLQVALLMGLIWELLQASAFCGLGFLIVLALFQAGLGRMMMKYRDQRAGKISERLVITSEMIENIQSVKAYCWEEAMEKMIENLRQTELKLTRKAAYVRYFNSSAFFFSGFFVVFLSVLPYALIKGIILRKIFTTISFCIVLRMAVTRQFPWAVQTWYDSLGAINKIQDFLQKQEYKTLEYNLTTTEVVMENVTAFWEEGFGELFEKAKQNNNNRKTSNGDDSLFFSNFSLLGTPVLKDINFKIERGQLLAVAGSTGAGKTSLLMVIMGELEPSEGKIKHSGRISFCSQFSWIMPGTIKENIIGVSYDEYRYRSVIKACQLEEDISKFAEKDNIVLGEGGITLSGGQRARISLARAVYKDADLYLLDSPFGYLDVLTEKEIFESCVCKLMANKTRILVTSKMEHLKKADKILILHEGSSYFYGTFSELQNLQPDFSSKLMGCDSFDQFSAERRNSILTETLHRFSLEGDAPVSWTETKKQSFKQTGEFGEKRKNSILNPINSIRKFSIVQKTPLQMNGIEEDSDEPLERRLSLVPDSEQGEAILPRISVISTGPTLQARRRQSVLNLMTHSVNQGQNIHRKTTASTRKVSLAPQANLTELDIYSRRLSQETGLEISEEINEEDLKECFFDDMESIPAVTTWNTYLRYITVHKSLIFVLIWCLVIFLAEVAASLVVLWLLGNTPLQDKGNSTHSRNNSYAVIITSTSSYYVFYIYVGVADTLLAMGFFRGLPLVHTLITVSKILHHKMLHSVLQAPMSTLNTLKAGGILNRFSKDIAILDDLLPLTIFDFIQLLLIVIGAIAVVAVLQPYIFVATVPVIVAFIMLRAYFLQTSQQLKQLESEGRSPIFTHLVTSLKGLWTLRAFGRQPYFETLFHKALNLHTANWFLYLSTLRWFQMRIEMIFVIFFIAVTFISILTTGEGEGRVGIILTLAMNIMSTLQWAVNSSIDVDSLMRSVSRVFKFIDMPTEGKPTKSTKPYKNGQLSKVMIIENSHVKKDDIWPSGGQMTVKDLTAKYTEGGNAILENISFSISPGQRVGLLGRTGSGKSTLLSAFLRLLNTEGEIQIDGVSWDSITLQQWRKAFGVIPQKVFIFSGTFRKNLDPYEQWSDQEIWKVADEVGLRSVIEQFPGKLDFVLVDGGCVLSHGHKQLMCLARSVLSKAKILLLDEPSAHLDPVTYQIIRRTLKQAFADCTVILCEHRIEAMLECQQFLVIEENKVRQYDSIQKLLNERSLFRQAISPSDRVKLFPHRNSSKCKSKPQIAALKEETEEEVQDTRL

Emax [1] [%] | EC50 [2] [µM] | Maximum % activity (with co-corrector) [3] | EC50 [4] [µM] | EC50 [5] [µM] | EC50 [6] [µM] | Maximum % activity (with co-corrector) [7] | Emax (CSE-HRP, without co-corrector) [%] | Maximum % activity (with co-corrector) (with co-corrector (2 μM)) | Emax (without co-corrector) [%] | Compound
< 100 | > 10 | + (<150) | > 10 |  |  |  |  |  |  | COc1cccc([C@@H]2[C@H](Nc3cc(C(F)(F)F)cc(C)n3)[C@@H](C(C)(C)C)[C@H](C(=O)O)N2C(=O)C2CCCCO2)n1 (mixture of isomers) [III-63]
 |  |  |  | 1 to 10 | 1 to 10 | +++ (≥350) | 100 to 200 |  |  | COc1ccc(C(C)(C)C)cc1CN[C@H]1[C@H](C(C)(C)C)[C@@H](C(=O)O)N(C(=O)C2CC(=O)N(C(C)C)C2)[C@H]1c1ccccc1 (some centres unmarked) [II-238]
< 100 | > 10 |  | 1 to 10 |  |  |  |  | ++ (≥150 and <350) |  | COc1ncc(C(F)(F)F)cc1CN[C@H]1[C@H](C(C)(C)C)[C@@H](C(=O)O)N(C(=O)[C@@H]2OCC[C@@H]2Cn2cccn2)[C@H]1c1ccccc1 [III-200]
< 100 | 1 to 10 | ++ (≥150 and <350) |  |  |  |  |  |  |  | COc1ccc(C(C)(C)C)cc1CN[C@H]1[C@H](C(C)(C)C)[C@@H](C(=O)O)N(C(=O)C2CCCN(C)C2=O)[C@H]1c1ccccc1 (single isomer, unassigned) [II-444]
 | 1 to 10 |  | 1 to 10 |  |  |  |  | +++ (≥350) | 100 to 200 | COc1ccc(C(C)(C)C)cc1CN[C@H]1[C@H](C(C)(C)C)[C@@H](C(=O)O)N(C(=O)[C@H](C)c2ccccc2)[C@H]1c1cccnc1N(C)C [Example I-233]
 | > 10 |  | > 10 |  |  |  |  | + (<150) | < 100 | COc1ccc(S(C)(=O)=O)cc1CN[C@@H]1[C@@H](C(C)(C)C)[C@H](C(=O)O)N(C(=O)C2CCCCC2)[C@@H]1c1ccccc1 (racemic) [Example I-30]
 | 1 to 10 |  | 1 to 10 |  |  |  |  | +++ (≥350) | > 200 | COc1ccc(C(F)(F)F)cc1CN[C@H]1[C@H](C(C)(C)C)[C@@H](C(=O)O)N(C(=O)[C@H]2CCC[C@H](OC)C2)[C@H]1c1ccccc1 [Example I-60]
 |  |  |  | 1 to 10 | 1 to 10 | +++ (≥350) | 100 to 200 |  |  | COc1ccc(C(F)(F)F)cc1CN[C@H]1[C@H](C(C)(C)C)[C@@H](C(=O)O)N(C(=O)[C@H](OC)c2ccccc2)[C@H]1c1cccnc1N(C)C (racemic) [II-33]
 |  |  |  | 1 to 10 | 1 to 10 | +++ (≥350) | 100 to 200 |  |  | COc1ccc(C(C)(C)C)cc1CN[C@H]1[C@H](C(C)(C)C)[C@@H](C(=O)O)N(C(=O)c2cccc(Cn3cncn3)c2)[C@H]1c1ccccc1 [II-225]
 |  |  |  | < 1 | < 1 | +++ (≥350) | > 200 |  |  | COc1ccc(C(C)(C)C)cc1CN[C@H]1[C@H](C(C)(C)C)[C@@H](C(=O)O)N(C(=O)Cc2ccccc2Cl)[C@H]1c1ccccc1 [II-183]
 |  |  |  | < 1 | < 1 | +++ (≥350) | > 200 |  |  | COc1ccc(C(C)(C)C)cc1CN[C@H]1[C@H](C(C)(C)C)[C@@H](C(=O)O)N(C(=O)Cc2cc(F)ccc2F)[C@H]1c1ccccc1 [II-202]
 | < 1 |  | < 1 |  |  |  |  | +++ (≥350) | 100 to 200 | COc1ncc(C(F)(F)F)cc1CN[C@H]1[C@H](C(C)(C)C)[C@@H](C(=O)O)N(C(=O)C2CCCCC2)[C@H]1c1ccccc1 [Example 12, (2S,3S,4S,5S)-3-tert-butyl-1-(cyclohexanecarbonyl)-4-({[2-methoxy-5-(trifluoromethyl)pyridin-3-yl]methyl}amino)-5-phenylpyrrolidine-2-carboxylic acid]
 | 1 to 10 |  | 1 to 10 |  |  |  |  | +++ (≥350) | < 100 | COc1ccc(C(C)(C)C)cc1CN[C@H]1[C@H](C(C)(C)C)[C@@H](C(=O)O)N(C(=O)C2(C)CCc3cc(C)ccc32)[C@H]1c1ccccc1 (some centres unmarked) [Example I-147]
100 to 200 | 1 to 10 | +++ (≥350) | < 1 |  |  |  |  |  |  | COc1ccc(C(C)(C)C)cc1CN[C@H]1[C@H](C(C)(C)C)[C@@H](C(=O)O)N(C(=O)C(C)Oc2cccc(C)c2C)[C@H]1c1ccccc1 (some centres unmarked) [II-323]
100 to 200 | 1 to 10 | +++ (≥350) | 1 to 10 |  |  |  |  |  |  | COc1ccc(C(C)(C)C)cc1CN[C@H]1[C@H](C(C)(C)C)[C@@H](C(=O)O)N(C(=O)C23CC(F)(C2)C3)[C@H]1c1ccccc1 [II-498]
100 to 200 | 1 to 10 |  | < 1 |  |  |  |  | +++ (≥350) |  | COc1ncc(C(F)(F)F)cc1CN[C@@H]1[C@@H](C(C)(C)OC)[C@H](C(=O)O)N(C(=O)C2CCCCC2)[C@@H]1c1ccccc1 (racemic) [III-116]
 | 1 to 10 |  | 1 to 10 |  |  |  |  | +++ (≥350) | 100 to 200 | COc1ccc(C(F)(F)F)cc1CN[C@H]1[C@H](C(C)(C)C)[C@@H](C(=O)O)N(C(=O)C2CCCCC2)[C@H]1c1cccnc1N(C)C [Example I-53]
 | 1 to 10 |  | 1 to 10 |  |  |  |  | +++ (≥350) | 100 to 200 | COc1ccc(C(F)(F)F)cc1CN[C@H]1[C@H](C2(C)CC2)[C@@H](C(=O)O)N(C(=O)C2CCCCC2)[C@H]1c1ccccc1 [Example I-136]
100 to 200 | 1 to 10 | +++ (≥350) | 1 to 10 |  |  |  |  |  |  | COc1ccc(C2CCOCC2)cc1CN[C@H]1[C@H](C(C)(C)C)[C@@H](C(=O)O)N(C(=O)C2CCCCC2)[C@H]1c1ccccc1 [II-340]
 | 1 to 10 |  | 1 to 10 |  |  |  |  | +++ (≥350) | > 200 | COc1ccc(C(F)(F)F)cc1CN[C@H]1[C@H](C(C)(C)C)[C@@H](C(=O)O)N(C(=O)[C@H]2OCC[C@H]2C(C)C)[C@H]1c1ccccc1 (relative stereo) [Example I-106]
 | 1 to 10 |  | 1 to 10 |  |  |  |  | +++ (≥350) | < 100 | COc1nc(C(C)(C)C)ccc1CN[C@H]1[C@H](C(C)(C)C)[C@@H](C(=O)O)N(C(=O)[C@@H]2CCC[C@H](OC)C2)[C@H]1c1ccccc1 (relative stereo) [Example I-198]
 |  |  |  | 1 to 10 | 1 to 10 | +++ (≥350) | 100 to 200 |  |  | COc1ccc(C(F)(F)F)cc1CN[C@@H]1[C@@H](C(C)(C)C)[C@H](C(=O)O)N(C(=O)OC(C)C)[C@@H]1c1ccccc1N(C)C (racemic) [II-56]
 | 1 to 10 |  | 1 to 10 |  |  |  |  | +++ (≥350) | > 200 | COc1ncc(C2CC3CCC2C3)cc1CN[C@H]1[C@H](C(C)(C)C)[C@@H](C(=O)O)N(C(=O)C2CCCCC2)[C@H]1c1cccnc1N(C)C (some centres unmarked) [Example I-133]
 | 1 to 10 |  | 1 to 10 |  |  |  |  | ++ (≥150 and <350) | < 100 | COc1ncc(C2CCC2)cc1CN[C@H]1[C@H](C(C)(C)C)[C@@H](C(=O)O)N(C(=O)C2COc3ccccc3O2)[C@H]1c1ccccc1 (relative stereo) [Example I-205]

From US20180099931A1 (AbbVie S.à.r.l., priority 2016, published 2018)
